Results taken from paper PMC3387161, “Small Molecules Targeted to a Non-Catalytic “RVxF” Binding Site of Protein Phosphatase-1 Inhibit HIV-1” (PLoS ONE, 2012).
“And” between values parts separate entries of the source, which are not always exact repeats. Equal values may be shown once. Square brackets hold non-standard residues; d marks the D form. Ends that are not written are not given here. pS = N[C@@H](COP(=O)(O)O)C(=O)O

Key:
CEM cells = experiment: Toxicity by propidium iodide fluorescence in CEM-GFP cells; type: cell-based; conditions: Homo sapiens, CCRF-CEM, 3 µM to 45 µM, 24 h
[1] = tested on: HIV-1 transcription in CEM-GFP cells; experiment: cells; type: cell-based; conditions: for IC50: Human immunodeficiency virus 1, CEM-GFP, 24 h, read-out: Inhibition of HIV-1 Transcription in CEM-GFP cells (IC50, μM)
recombinant PP1α = target: T1, recombinant PP1α (Oryctolagus cuniculus, UniProt P62139); experiment: Malachite green dephosphorylation of RVxF-containing hybrid pRb peptides by PP1α; type: biochemical; conditions: peptide as substrate, no compound added
T1 construct: purchased New England Biolabs, Ipswich, MA
From the text: Here, we analyzed the effect of 1H4 on the binding of the Tat RVxF sequence to PP1 using hybrid PP1 substrates containing a substrate phosphopeptide linked to RVxF-containing sequences derived from Tat or NIPP1. As the substrate phosphopeptide, we used a retinoblastoma protein-derived HIPR(pS)[…] peptide (pRb) that is efficiently dephosphorylated by PP1 but not by the enzymatically-related PP2A [13]. The pRb peptide was linked to an extended RVxF-containing sequence derived from Tat ([…]) (pRb-Tat peptide) or the central domain of NIPP1 ([…]). To visualize the interaction between pRb-Tat and PP1 we built a computational model of the pRb-Tat peptide with PP1 complex (described in Materials and Methods). Based on this model, the pRb-Tat peptide is able to bind to the RVxF- accommodating groove of PP1 and, at the same time, to reach the active site of PP1 without any tension (Fig. 5A, green spheres; Fig. 5B, gray sticks). The pRb-Tat peptide was efficiently dephosphorylated by PP1 in vitro (Fig. 5C, V0 = 0.31 µM·min^-1). […] Addition of 1H4 at 3-fold molar excess (480 µM) over pRb-Tat (160 µM) inhibited pRb-Tat dephosphorylation and reduced the rate of dephosphorylation (Fig. 5C, V0 = 0.19 µM·min^−1) to the rate of pRb-Tat QACA dephosphorylation (Fig. 5C, V0 = 0.17 µM⋅min^−1). […] To further investigate the effect of 1H4 on the dephosphorylation of the pRb-Tat peptide, we analyzed the initial velocity versus pRb-Tat peptide substrate concentration plots. […] This was expected because the dephosphorylation site and the RVxF-containing sequence were fused into one hybrid substrate and 1H4 interferes with the binding of this substrate to PP1.
Figure 5 1H4 compound competes with RVxF motif. A. Superimposition of pRb-Tat peptide on the complex of PP1 with Spinophilin. PP1 surface is colored after the atom types. The spinophilin peptide is shown as magenta ribbon and the pRb-Tat peptide as orange ribbon. The Val25 and Phe27 residues of pRb-Tat and the Ile449 and Phe 451 residues of Spinophilin are shown as sticks. The 2-(N-morpholino)-ethanesulfonic acid bound in the active site of PP1 is shown in green spheres. The phosphorylated Ser6 residue of pRb-Tat peptide is shown as sticks. B. Phosphorylated Ser 6 residue binds to the active site of PP1. Comparative superimposition of pRb-Tat peptide over the crystal structure of MES bound in the active site of PP1. Catalytic resides are shown as sticks. MES is shown as green sticks, and the phosphorylated Ser6 residue of pRb-Tat peptide is shown as orange sticks. The pRb-Tat peptide is shown as orange ribbon. C. 1H4 inhibits kinetics of pRb-Tat peptide dephosphorylation by PP1α. Recombinant PP1α was assayed with pRb-Tat (WT or QACA mutant, 120 µM) in the absence or presence of 1H4 as indicated. The reactions were stopped at indicated time points and the phosphate release was quantified by malachite green assay. Initial velocity was calculated by linear regression in Prism. D. 1H4 inhibits kinetics of pRb-cdNIPP dephosphorylation by PP1α. Recombinant PP1α was assayed with pRb-cdNIPP1 in the absence or presence of 1H4 as indicated. Mutant pRb cdNIPP1 pA-RATA was used as negative control. The reactions were stopped at indicated time points and the phosphate release was quantified by malachite green assay. Initial velocity was calculated by linear regression in Prism. […] Initial rates of pRb-Tat peptide dephosphorylation by PP1α were assayed at the indicated concentrations of the substrate in the absence or presence of 300 µM 1H4 or non-HIV-1 inhibitory 1G3. The amount of the released phosphate was quantified with malachite green.
Malachite green dephosphorylation assays were carried out with the Ser/Thr phosphatase assay kit (Upstate, Lake Placid, NY) using recombinant PP1α (New England Biolabs, Ipswich, MA). […]

PP1α = PP1α (Homo sapiens, UniProt P62136)
PP1α, sequence (P62136 whole entry): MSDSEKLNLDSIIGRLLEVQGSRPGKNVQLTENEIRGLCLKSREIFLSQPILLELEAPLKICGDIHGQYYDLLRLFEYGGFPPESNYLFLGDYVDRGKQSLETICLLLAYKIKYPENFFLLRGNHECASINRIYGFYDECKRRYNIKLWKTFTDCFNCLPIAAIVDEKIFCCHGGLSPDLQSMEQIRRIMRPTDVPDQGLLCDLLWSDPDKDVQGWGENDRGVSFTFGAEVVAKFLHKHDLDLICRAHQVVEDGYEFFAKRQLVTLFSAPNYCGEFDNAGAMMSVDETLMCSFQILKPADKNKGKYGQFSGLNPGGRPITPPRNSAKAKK

T1 sequence (P62139 whole entry): as the sequence (P62136 whole entry) above

Row | Molecule | IC50 (CEM cells) [µM] | IC50 [1] [µM] | Initial velocity V0 of peptide dephosphorylation by PP1α (recombinant PP1α) | other results
1 | CCN(CC)S(=O)(=O)c1ccc2c(c1)nc(CCC(=O)N(C)c1ccc(C(F)(F)F)cc1)n2C [T5326526] | 10 | 15 |  | 
2 | HIPR[pS]PYKFPSSPLRKRKRKNSRVTFSED [pRb-NIPP1] |  |  | 0.56 µM/min | Initial velocity V0 of peptide dephosphorylation by PP1α (recombinant PP1α; listed as pRb-cdNIPP1): 0.56 ± 0.03 µM/min
3 | HIPR[pS]PYKFPSSPLRAAAAASRATASED [pRb-NIPP1 pA-RATA] |  |  | 0.004 µM/min | Initial velocity V0 of peptide dephosphorylation by PP1α (recombinant PP1α; listed as pRb-cdNIPP1 pA-RATA): 0.017 ± 0.004 µM/min
4 | Nc1c2c(nc3ccccc13)CCCC2 [9-amino-1,2,3,4-tetrahydroacridine, reference compound] |  |  |  | Activity as HIV-1 transcription inhibitor (in words) ([1]; data not shown, assay not specified): not active
5 | CC(OC(=O)c1ccccc1SCC(=O)Nc1ccc2c(c1)OCO2)C(=O)NCCC1=CCCCC1 (stereo not shown) [T5369370] | 15 | 10 |  | 
6 | HIPR[pS]PYKFPSSPL [pRb, reference compound] |  |  | 0.014 µM/min | 
7 | HIPR(pS)PYKFPSSPLRKKCCFHCQACAITK (HIPR[pS]PYKFPSSPLRKKCCFHCQACAITK; cysteine pairing not given here) [pRb-Tat QACA] |  |  | 0.17 µM/min and 0.17 ± 0.02 µM/min | 
8 | O=S(=O)(Nc1ccc(S(=O)(=O)N2CCC(Cc3ccccc3)CC2)cn1)c1ccccc1 [T5481237] | 20 | 15 |  | 
9 | HIPR(pS)PYKFPSSPLRKKCCFHCQVCFITK [pRb-Tat] |  |  | 0.31 µM/min and 0.31 ± 0.03 µM/min | 
10 | CN(C1CCCCC1)S(=O)(=O)c1ccc(NC(=O)COc2ccccc2-c2ccccc2)cc1 [T5551920] | 15 | 15 |  | 
11 | O=C(CNC(=O)c1ccccc1SCC(=O)NC12CC3CC(CC(C3)C1)C2)Nc1ccc(Cl)cc1 [T5498680] | 5 | 5 |  | 
12 | CCC(c1nnc(SCC(=O)Nc2ncc(-c3ccc(F)cc3)s2)n1Cc1ccccc1)N(C)C (stereo not shown) [T5251659] | 6 | 10 |  | 
13 | HIPR[pS]PYKFPSSPLRKRKRKNSRVTFSED [pRb-NIPP1 peptide] |  |  |  | initial velocity V0 of dephosphorylation of the peptide by recombinant PP1α in the presence of the small molecule 1H4 (PP1α): 0.37 µM⋅min^−1; initial velocity V0 of dephosphorylation of the peptide by recombinant PP1α in vitro (malachite green) (PP1α): 0.56 µM⋅min^−1
